Laboratory results reported in patent publication US9676773B2, “Azaindole derivative” (TAIHO PHARMACEUTICAL CO., LTD., priority 2014, dated 2017).

Columns and labels:
[1] = target: T1, purified recombinant human JAK3 protein (Homo sapiens, UniProt P52333); assay: Measurement of JAK3 kinase-inhibitory activity; format: biochemical; conditions: substrate peptide 1 μM, ATP 5 μM, 25° C., 80 minutes
T1 construct: purchased Carna Biosciences, Inc
T1 sequence (P52333 1-1124): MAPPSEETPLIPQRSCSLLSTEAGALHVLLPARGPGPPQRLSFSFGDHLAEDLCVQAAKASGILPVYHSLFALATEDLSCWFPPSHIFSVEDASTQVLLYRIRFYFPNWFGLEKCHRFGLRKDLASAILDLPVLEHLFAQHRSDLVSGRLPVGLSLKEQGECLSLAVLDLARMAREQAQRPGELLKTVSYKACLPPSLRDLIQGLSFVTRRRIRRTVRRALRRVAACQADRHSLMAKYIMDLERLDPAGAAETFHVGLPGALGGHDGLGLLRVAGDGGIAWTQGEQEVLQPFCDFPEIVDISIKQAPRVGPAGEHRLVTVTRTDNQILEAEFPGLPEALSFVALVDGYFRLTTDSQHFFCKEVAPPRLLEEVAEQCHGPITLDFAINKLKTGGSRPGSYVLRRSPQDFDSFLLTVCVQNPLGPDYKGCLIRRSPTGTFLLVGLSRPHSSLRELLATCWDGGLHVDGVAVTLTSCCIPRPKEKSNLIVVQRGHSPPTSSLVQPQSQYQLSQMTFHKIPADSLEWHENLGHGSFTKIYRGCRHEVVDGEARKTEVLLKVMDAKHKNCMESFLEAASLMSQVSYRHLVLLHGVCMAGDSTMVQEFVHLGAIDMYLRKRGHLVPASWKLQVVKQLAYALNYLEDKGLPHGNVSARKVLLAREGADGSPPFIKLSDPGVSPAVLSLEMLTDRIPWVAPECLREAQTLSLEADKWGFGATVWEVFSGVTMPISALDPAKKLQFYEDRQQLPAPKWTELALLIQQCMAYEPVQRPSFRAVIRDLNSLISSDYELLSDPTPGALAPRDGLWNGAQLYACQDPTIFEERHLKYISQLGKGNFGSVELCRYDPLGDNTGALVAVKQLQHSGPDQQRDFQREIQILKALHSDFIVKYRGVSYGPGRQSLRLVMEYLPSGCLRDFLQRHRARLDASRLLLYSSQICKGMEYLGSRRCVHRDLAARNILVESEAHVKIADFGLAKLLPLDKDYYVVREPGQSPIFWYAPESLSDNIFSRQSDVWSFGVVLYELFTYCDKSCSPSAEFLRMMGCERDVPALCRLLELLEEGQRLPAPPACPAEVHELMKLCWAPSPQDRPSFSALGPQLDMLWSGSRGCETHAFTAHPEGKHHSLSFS
Procedure: 3) Measurement of JAK3 Kinase-Inhibitory Activity
The activity of the compound of the present invention to inhibit the activity of JAK3 kinase was measured.
Among materials for the measurement of this inhibitory activity, a substrate peptide and a kinase protein were acquired as follows. As such a substrate peptide, a substrate peptide for QSS Assist™ JAK3-MSA assay kit (Carna Biosciences, Inc.) was purchased. As such a kinase protein, a purified recombinant human JAK3 protein (Carna Biosciences, Inc.) was purchased.
The method for measuring the inhibitory activity is as follows. First, a serial dilution of the compound of the present invention was prepared by the same method as that described in the above section regarding JAK1. This serial dilution solution (the final concentration of DMSO upon a kinase reaction: 5.0%) or DMSO (final concentration: 5.0%) was mixed with a solution containing the substrate peptide (final concentration: 1 μM), magnesium chloride (final concentration: 5 mM) and ATP (final concentration: 5 μM) in a buffer for kinase reaction (20 mM HEPES (pH 7.5), 2 mM dithiothreitol and 0.01% Triton X-100). Thereafter, a JAK3 protein was further added to the mixed solution, and the obtained mixture was then incubated at 25° C. for 80 minutes to carry out a kinase reaction. To the reaction solution, EDTA was added to a final concentration of 30 mM, so as to terminate the reaction. After termination of the reaction, the measurement and the data analysis were carried out by the same methods as those described in the above section regarding JAK1.

[2] = test system: human PBMC; assay: IL-2-dependent growth of human peripheral blood mononuclear cells (PBMC); format: cell-based; conditions: PHA-M pre-culture 3 days, IL-2 2 ng/mL, 2 days, CellTiter-Glo, read-out: PSMC IC50
Procedure: The activity of the compound of the present invention to inhibit the IL-2-dependent growth reaction of human PBMC, which is caused by JAK3, was measured (Arthritis Rheum. 2010; 62(8): 2283-93).
With a medium containing 10 μg/mL PHA-M (Sigma) (which is RPI-1640 (Sigma) containing 10% human serum type AB (MP Biomedicals)), human PBMC (C.T.L.) (cell density: 1×10^6 cells/mL) was cultured at 37° C. in a culture vessel containing 5% carbon dioxide for 3 days. Thereafter, the culture was washed with RPMI-1640 four times, and a medium (RPMI-1640 containing 10% human serum type AB) was then added to the resultant culture to prepare a cell suspension. The cells (1×10^4 cells per well) and the serially diluted compound of the present invention were added to each well of a 96-well U-bottom microplate, and thus obtained mixture was then cultured at 37° C. in a culture vessel containing 5% carbon dioxide for 30 minutes. After completion of the culture, recombinant human IL-2 (Peprotech) was added to the culture to a final concentration of 2 ng/mL, and the obtained mixture was then stirred at 37° C. in a culture vessel containing 5% carbon dioxide for 2 days (1×10^4 cells/100 μl/each well). After completion of the culture, the resultant was left at a room temperature for 30 minutes, and 100 μl of CellTiter-Glo Luminescent Cell Viability Assay (Promega) was then added to the resultant, followed by stirring it. Thereafter, the reaction mixture was left for 10 minutes, and the amount of a luminescence derived from living cells in each well was then measured with a microplate reader (TECAN). The inhibition rate of the compound to the cell growth caused by IL-2 stimulation was calculated, and the concentration of the compound capable of inhibiting 50% of the cell growth was defined as an […] value (nM).

Row | SMILES | IC50 [1] [nM] | IC50 [2] [nM]
1 | C1=C(c2ccnc3[nH]ccc23)CCCC1 [Comparative Example 1, reference compound] | 250 | > 3000
2 | C1=C(c2ccnc3[nH]ccc23)CCC1 [Comparative Example 2, 4-(Cyclopent-1-en-1-yl)-1H-pyrrolo[2,3-b]pyridine, reference compound] | 350 | > 3000
3 | Cc1nc(-c2c[nH]c3ncc(-c4ccccc4)cc23)cs1 [Comparative Example 3, 2-Methyl-4-(5-phenyl-1H-pyrrolo[2,3-b]pyridin-3-yl)thiazole, reference compound] | 460 | > 3000
4 | C=CC(=O)NC1CCC=C(c2ccnc3[nH]cc(-c4ccccc4)c23)C1 (stereo not drawn) [Compound 1, N-(3-(3-Phenyl-1H-pyrrolo[2,3-b]pyridin-4-yl)cyclohex-3-en-1-yl)acrylamide] | < 0.3 | 216
5 | C=CC(=O)NC1CCC=C(c2ccnc3[nH]cc(-c4cn[nH]c4)c23)C1 (stereo not drawn) [Compound 3, N-(3-(3-(1H-Pyrazol-4-yl)-1H-pyrrolo[2,3-b]pyridin-4-yl)cyclohex-3-en-1-yl)acrylamide] | < 0.3 | 182
6 | C=CC(=O)NC1CCC=C(c2ccnc3[nH]cc(-c4cccnc4OC)c23)C1 (stereo not drawn) [Compound 6, N-(3-(3-(2-Methoxypyridin-3-yl)-1H-pyrrolo[2,3-b]pyridin-4-yl)cyclohex-3-en-1-yl)acrylamide] | 0.42 | 181
7 | C=CC(=O)NC1CCC=C(c2ccnc3[nH]cc(-c4ccc(CO)o4)c23)C1 (stereo not drawn) [Compound 10, N-(3-(3-(5-(Hydroxymethyl)furan-2-yl)-1H-pyrrolo[2,3-b]pyridin-4-yl)cyclohex-3-en-1-yl)acrylamide] | < 0.3 | 136
8 | C=CC(=O)NC1CCC=C(c2ccnc3[nH]cc(-c4ccco4)c23)C1 (stereo not drawn) [Compound 12, N-(3-(3-(Furan-2-yl)-1H-pyrrolo[2,3-b]pyridin-4-yl)cyclohex-3-en-1-yl)acrylamide] | < 0.3 | 123
9 | C=CC(=O)NC1CCC=C(c2ccnc3[nH]cc(-c4cc(CO)co4)c23)C1 (stereo not drawn) [Compound 14, N-(3-(3-(4-(Hydroxymethyl)furan-2-yl)-1H-pyrrolo[2,3-b]pyridin-4-yl)cyclohex-3-en-1-yl)acrylamide] | < 0.3 | 114
10 | C=CC(=O)NC1CCC=C(c2ccnc3[nH]cc(C4=CCOC4)c23)C1 (stereo not drawn) [Compound 34, N-(3-(3-(2,5-Dihydrofuran-3-yl)-1H-pyrrolo[2,3-b]pyridin-4-yl)cyclohex-3-en-1-yl)acrylamide] | < 0.3 | 82
11 | C=CC(=O)NC1CCC=C(c2ccnc3[nH]cc(-c4ccc(F)nc4)c23)C1 (stereo not drawn) [Compound 37, N-(3-(3-(6-Fluoropyridin-3-yl)-1H-pyrrolo[2,3-b]pyridin-4-yl)cyclohex-3-en-1-yl)acrylamide] | < 0.3 | 159
12 | C=CC(=O)NC1CCC=C(c2ccnc3[nH]cc(-c4cnco4)c23)C1 (stereo not drawn) [Compound 48, N-(3-(3-(Oxazol-5-yl)-1H-pyrrolo[2,3-b]pyridin-4-yl)cyclohex-3-en-1-yl)acrylamide] | < 0.3 | 114
13 | C=CC(=O)NC1CCC=C(c2ccnc3[nH]cc(-c4nnco4)c23)C1 (stereo not drawn) [Compound 49, N-(3-(3-(1,3,4-Oxadiazol-2-yl)-1H-pyrrolo[2,3-b]pyridin-4-yl)cyclohex-3-en-1-yl)acrylamide] | < 0.3 | 122
14 | C=CC(=O)NC1CCC=C(c2ccnc3[nH]cc(-c4nn(C)c(=O)o4)c23)C1 (stereo not drawn) [Compound 53, N-(3-(3-(4-Methyl-5-oxo-4,5-dihydro-1,3,4-oxadiazol-2-yl)-1H-pyrrolo[2,3-b]pyridin-4-yl)cyclohex-3-en-1-yl)acrylamide] | < 0.3 | 162
15 | C=CC(=O)NC1CCC=C(c2ccnc3[nH]cc(-c4nncs4)c23)C1 (stereo not drawn) [Compound 54] | 0.45 | 170
16 | C=CC(=O)N[C@H]1CCC=C(c2ccnc3[nH]cc(-c4nnco4)c23)C1 [Compound 55, (S)—N-(3-(3-(1,3,4-Oxadiazol-2-yl)-1H-pyrrolo[2,3-b]pyridin-4-yl)cyclohex-3-en-1-yl)acrylamide] | < 0.3 | 34
17 | C=CC(=O)NC1CC=C(c2ccnc3[nH]cc(-c4nnco4)c23)C1 (stereo not drawn) [Compound 57, N-(3-(3-(1,3,4-Oxadiazol-2-yl)-1H-pyrrolo[2,3-b]pyridin-4-yl)cyclopent-3-en-1-yl)acrylamide] | 0.57 | 304
18 | C=CC(=O)N[C@H]1CCC=C(c2ccnc3[nH]cc(-c4ccno4)c23)C1 [Compound 59] | < 0.3 | 55
